Measured values taken from ChEMBL document CHEMBL1201862, “PubChem BioAssay data set” (2004).
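Grown in 96-well plates, cells were treated for 48 hours with each compound at five concentrations. Insufficient inhibition: endpoint recorded as highest concentration tested. At the GI50, growth is halved.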 Active and inactive are the calls of the source. No stated cut-off is given here; in the data, active = GI50 up to about 1.1 µM and inactive = higher.

How the values were obtained:
Test in all cases: DTP human tumour cell line panel, 48 h
OVCAR-5 = tested on: OVCAR-5
UACC-62 = tested on: UACC-62
IGROV-1 = tested on: IGROV-1
NCI-H522 = tested on: NCI-H522
RPMI-8226 = tested on: RPMI-8226
HCC 2998 = tested on: HCC 2998
K562 = tested on: K562
MOLT-4 = tested on: MOLT-4
SW-620 = tested on: SW-620
SF-295 = tested on: SF-295
SNB-75 = tested on: SNB-75
NCI-H460 = tested on: NCI-H460
786-0 = tested on: 786-0
SF-539 = tested on: SF-539
UACC-257 = tested on: UACC-257

Measured: GI50

CCCCC(C(=O)C(=O)NC1C2CC3CC(C2)CC1C3)C(=O)C(C)C (configuration not stated)
inactive: OVCAR-5 > 100 µM | UACC-62 > 100 µM | IGROV-1 > 100 µM | NCI-H522 > 100 µM | RPMI-8226 > 100 µM | HCC 2998 > 100 µM | K562 > 100 µM | MOLT-4 > 100 µM | SW-620 > 100 µM | SF-295 > 100 µM | SNB-75 > 100 µM | NCI-H460 > 100 µM | 786-0 > 100 µM | SF-539 > 100 µM | UACC-257 > 100 µM

COC(=O)C(Cc1nc2ccccc2nc1O)C(=O)C(=O)Nc1ccc([N+](=O)[O-])cc1[N+](=O)[O-] (configuration not stated)
inactive: OVCAR-5 27.2 µM | UACC-62 18.7 µM | IGROV-1 25.6 µM | NCI-H522 6.22 µM | RPMI-8226 23.1 µM | HCC 2998 18.1 µM | K562 30.8 µM | MOLT-4 18.5 µM | SW-620 18.7 µM | SF-295 24.9 µM | SNB-75 16.3 µM | NCI-H460 22.1 µM | 786-0 16.5 µM | SF-539 20.6 µM | UACC-257 19.7 µM

CCCN(CCCC(NC(C)=O)C(=O)NCc1ccccc1)C(=O)NC (configuration not stated)
inactive: OVCAR-5 > 100 µM | UACC-62 > 100 µM | IGROV-1 > 100 µM | NCI-H522 > 100 µM | RPMI-8226 > 100 µM | HCC 2998 > 100 µM | K562 > 100 µM | MOLT-4 > 100 µM | SW-620 > 100 µM | SF-295 > 100 µM | SNB-75 13.7 µM | NCI-H460 > 100 µM | 786-0 > 100 µM | SF-539 > 100 µM | UACC-257 > 100 µM

CN(C)c1ccc(/C=C(\NC(=O)c2ccccc2)c2nc3ccc4c(c3[nH]2)C(=O)c2ccccc2C4=O)cc1
inactive: OVCAR-5 > 100 µM | UACC-62 35.8 µM | IGROV-1 11.4 µM | NCI-H522 8.79 µM | RPMI-8226 3.18 µM | HCC 2998 > 100 µM | K562 26.9 µM | MOLT-4 2.65 µM | SW-620 33.2 µM | SF-295 46.6 µM | SNB-75 11 µM | NCI-H460 29.1 µM | 786-0 25.4 µM | SF-539 36.5 µM | UACC-257 > 100 µM

COc1ccccc1NC(=O)C(CC(C(=O)Nc1ccccc1OC)/C(C)=N/Nc1ccc([N+](=O)[O-])cc1[N+](=O)[O-])/C(C)=N/Nc1ccc([N+](=O)[O-])cc1[N+](=O)[O-] (configuration not stated)
inactive: OVCAR-5 > 100 µM | UACC-62 > 100 µM | IGROV-1 54.5 µM | NCI-H522 > 73.1 µM | RPMI-8226 63.1 µM | HCC 2998 > 82 µM | K562 > 65.9 µM | MOLT-4 1.7 µM | SW-620 > 94.8 µM | SF-295 > 93.1 µM | SNB-75 52.1 µM | NCI-H460 > 100 µM | 786-0 > 100 µM | SF-539 > 90.2 µM | UACC-257 > 72.3 µM

c1ccc(C2=NOC3COc4ccccc4OCC23)cc1 (configuration not stated)
inactive: UACC-62 > 100 µM | NCI-H522 > 100 µM | RPMI-8226 > 100 µM | HCC 2998 > 100 µM | K562 72.6 µM | MOLT-4 > 100 µM | SW-620 > 100 µM | SF-295 > 100 µM | SNB-75 54.6 µM | NCI-H460 > 100 µM | 786-0 > 100 µM | SF-539 > 100 µM | UACC-257 > 100 µM

O=S(=O)(c1ccccc1)C(CN1CCCCC1)S(=O)(=O)c1ccccc1
inactive: OVCAR-5 > 100 µM | UACC-62 > 100 µM | IGROV-1 > 100 µM | NCI-H522 > 100 µM | RPMI-8226 > 100 µM | HCC 2998 > 100 µM | K562 > 100 µM | MOLT-4 > 100 µM | SW-620 > 100 µM | SF-295 > 100 µM | SNB-75 > 100 µM | NCI-H460 > 100 µM | 786-0 > 100 µM | SF-539 > 100 µM | UACC-257 > 100 µM

NC(=S)N/N=C(/CC(=O)c1ccccc1)C(=O)Nc1ccc(Cl)c(Cl)c1
inactive: OVCAR-5 > 100 µM | UACC-62 27.4 µM | IGROV-1 65.2 µM | NCI-H522 21.6 µM | RPMI-8226 73.3 µM | HCC 2998 93.5 µM | K562 > 100 µM | MOLT-4 32.3 µM | SW-620 78.5 µM | SF-295 61.9 µM | SNB-75 > 100 µM | NCI-H460 46.7 µM | 786-0 59.7 µM | SF-539 > 100 µM | UACC-257 > 100 µM

O=C(CO)CC(=O)C(=O)Nc1nc([N+](=O)[O-])cs1
inactive: OVCAR-5 > 100 µM | UACC-62 > 100 µM | IGROV-1 > 100 µM | NCI-H522 > 100 µM | RPMI-8226 > 100 µM | HCC 2998 > 100 µM | K562 > 100 µM | MOLT-4 > 100 µM | SW-620 > 100 µM | SF-295 > 100 µM | SNB-75 55.1 µM | NCI-H460 > 100 µM | 786-0 > 100 µM | SF-539 > 100 µM | UACC-257 > 100 µM

O=C(O)[C@@H]1CCCC[C@@H]1C(=O)N(C1CCCCC1)C1CCCCC1
inactive: OVCAR-5 > 100 µM | UACC-62 > 100 µM | IGROV-1 > 100 µM | NCI-H522 > 100 µM | RPMI-8226 > 100 µM | HCC 2998 > 100 µM | K562 > 100 µM | MOLT-4 > 100 µM | SW-620 > 100 µM | SF-295 > 100 µM | SNB-75 > 100 µM | NCI-H460 > 100 µM | 786-0 > 100 µM | SF-539 > 100 µM | UACC-257 > 100 µM

CCc1oc2ccc(OC)c3c2c1C=CC=C3
inactive: OVCAR-5 > 100 µM | UACC-62 > 100 µM | IGROV-1 > 100 µM | NCI-H522 > 100 µM | RPMI-8226 > 100 µM | HCC 2998 > 100 µM | K562 > 100 µM | MOLT-4 > 100 µM | SW-620 > 100 µM | SF-295 > 100 µM | SNB-75 60.3 µM | NCI-H460 > 100 µM | 786-0 > 100 µM | SF-539 > 100 µM | UACC-257 > 100 µM

CCC1(O)C(=O)OCc2c1cc1n(c2=O)Cc2cc3cc(OC)c(OC)cc3nc2-1 (configuration not stated)
inactive: OVCAR-5 > 100 µM | UACC-62 > 10 µM | IGROV-1 13.9 µM | NCI-H522 8.61 µM | RPMI-8226 46.8 µM | HCC 2998 36.7 µM | K562 78.5 µM | MOLT-4 4.85 µM | SF-295 10.9 µM | SNB-75 15 µM | NCI-H460 3.49 µM | 786-0 6.28 µM | SF-539 5.74 µM | UACC-257 > 100 µM

CC(=O)N(O)Cc1ccccc1
inactive: OVCAR-5 > 100 µM | UACC-62 > 100 µM | IGROV-1 > 100 µM | NCI-H522 > 100 µM | RPMI-8226 > 100 µM | HCC 2998 > 100 µM | K562 > 100 µM | MOLT-4 > 100 µM | SW-620 > 100 µM | SF-295 > 100 µM | SNB-75 67.9 µM | NCI-H460 > 100 µM | 786-0 > 100 µM | SF-539 > 100 µM | UACC-257 > 100 µM
